# Reference: US5519000A, “Tumor necrosis factor inhibitors” (Centecor, Inc., priority 1994, dated 1996)
# No end group written: not given here.
# Target: T1, human TNFα (Homo sapiens, UniProt P01375)
# T1 construct: purchased Biosource, Camarillo, Calif
# Assay: p55 receptor/IgG fusion protein binding assay (inhibition of TNFα capture by p55-Ig coated plate)
# Conditions: human recombinant TNFα 25 ng/ml preincubated with peptide; relative to TNFα in the absence of peptide; read-out: IC50 (concentration necessary to inhibit TNFα by 50%), inhibition of binding of TNFα to p55TNFr-IgG chimeric construct
# Protocol: In order to screen compounds for their ability to block TNFα binding to the TNF p55 receptor, an assay has been designed using TNFα and a p55/IgG fusion protein in place of monovalent, non-fusion p55 TNF receptor protein. This assay was designed to identify peptides which bind to human TNFα and thereby prevent the capture of the TNFα by a microtiter plate coated with p55-Ig fusion protein. A constant concentration of human TNFα is preincubated with the test peptide and then incubated on the p55-Ig coated microtiter wells. Bound TNFα is detected using a specific antisera and an alkaline phosphatase-conjugated probe. An active peptide will reduce the amount of human TNFα bound to the well relative to control wells in which TNFα but no peptide was added.
# A 96-well, U-bottom polyvinylchloride microtiter plate was coated with 50 μl/well of p55-Ig fusion protein at 5 μg/ml in 0.01M sodium phosphate, 0.15M sodium chloride (PBS) by incubation overnight at 4° C. or 2 hours at 37° C. The fusion protein, which consists of a p55 TNF receptor protein portion and an IgG portion, can be produced as disclosed in U.S. application Ser. No. 08/010,406 filed Jan. 29, 1993 which is incorporated herein by reference. The plate was washed three times with 0.05% Tween-20 in PBS, then blocked, by adding 150 μl/well of assay buffer (10 mM N-2-hydroxyethylpiperazine-N'-[…] (HEPES) pH 7.2, containing 0.1% porcine gelatin, 0.1% Tween-80, and 0.01% sodium azide) and continuing incubation for 1 hour at 37° C. or at 4° C. for 1-7 days.
# Lyophilized peptides to be tested were weighed in tared 12×75 mm polystyrene tubes and reconstituted to a concentration of 1.2 mM with assay buffer. Each suspension was sonicated in a water bath for 1-5 minutes and vortexed 15-30 seconds to disperse large particles. Serial dilutions of each peptide suspension were prepared using assay buffer in a 96-well polystyrene microtiter plate. Additional wells received Fab fragment of the mouse/human monoclonal anti-human TNFα antibody cA2 (positive control) or assay buffer (negative control). […] The polystyrene dilution plate was then sealed and incubated 1 hour at room temperature on an orbital mixer set at moderate speed.
# Following the sample preincubation, blocker was discarded from the p55-Ig coated plate and blotted dry. Aliquots (50 μl) of each peptide or control were transferred into duplicate wells on the p55-Ig coated plate which was then sealed and incubated 1 hour at 37° C. Duplicate wells containing only assay buffer were included as a plate blank. After incubation the p55-Ig plate was washed three times with 0.05% Tween-20 in PBS.
# To detect TNFα captured by the p55-Ig plate, all wells were incubated in succession with polyclonal rabbit anti-human TNFα (Genzyme, Boston, Mass.; 1:500 in assay buffer, 50 μl/well), biotinylated goat anti-rabbit Ig (H&L) (Vector Laboratories, Burlingame, Calif.; 1 μg/ml in assay buffer, 50 μl/well) and streptavidin-alkaline phosphatase conjugate (Pierce, Rockford, Ill.; 1 μg/ml in assay buffer, 50 μl/well). All incubations were for 1 hour at 37° C. and after each incubation the plate was washed three times with 0.05% Tween-20 in PBS. Fifty microliters of alkaline phosphatase substrate solution (alkaline buffer (Sigma, St. Louis, Mo.) diluted 1:500 in deionized water plus one 5 mg tablet of p-nitrophenyl phosphate (Sigma, St. Louis, Mo.) per 5 ml of diluted buffer) was added to all wells and incubation continued for 20 minutes at room temperature. Color development was stopped by adding to all wells 50 μl of 3N sodium hydroxide. The optical density (OD) at 405 nm was measured on a microtiter plate reader (Molecular Devices Vmax plate reader), with the plate blank wells subtracted as background. The activity of each peptide was then expressed as the percent inhibition of TNFα capture by the p55-Ig plate, relative to the amount of TNFα captured in wells containing only assay buffer (negative control), as follows: […]
# T1 sequence (P01375 77-233 limits assumed): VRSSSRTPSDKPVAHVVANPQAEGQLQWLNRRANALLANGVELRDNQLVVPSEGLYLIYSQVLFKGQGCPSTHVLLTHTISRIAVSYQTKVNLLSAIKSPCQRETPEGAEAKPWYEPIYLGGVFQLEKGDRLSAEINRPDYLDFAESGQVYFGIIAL
row,IC50 [µM],Substance
1,2530,"Ac-DILLTQSPAILSVSPGERVSFS-NH2 [SEQ ID NO:6, Acetyl-aspartyl-isoleucyl-leucyl-leucyl-threonyl-glutaminyl-seryl-prolyl-alanyl-isoleucyl-leucyl-seryl-valyl-seryl-prolyl-glycyl-glutamyl-arginyl-valyl-seryl-phenylalanyl-serine-amide]"
2,60,"Ac-FSNHWMNW-NH2 [SEQ ID NO:9, Acetyl-phenylalanyl-seryl-asparaginyl-histidyl-tryptophyl-methionyl-asparaginyl-tryptophan-amide]"
3,410,"Ac-FSNHWMNWVR-NH2 [SEQ ID NO:2, Acetyl-phenylalanyl-seryl-asparaginyl-histidyl-tryptophyl-methtonyl-asparaginyl-tryptophyl-valyl-arginine-amide]"
4,1110,"Ac-INTVESEDIADYYCQQSHSW-NH2 [SEQ ID NO:8, Acetyl-isoleucyl-asparaginyl-threonyl-valyl-glutamyl-seryl-glutamyl-aspartyl-isoleucyl-alanyl-aspartyl-tyrosyl-tyrosyl-cysteinyl-glutaminyl-glutaminyl-seryl-histidyl-seryl-tryptophan-amide]"
5,1880,"Ac-LIKYASQSMSGI-NH2 [SEQ ID NO:1, Acetyl-leucyl-tsoleucyl-lysyl-tyrosyl-alanyl-seryl-glutaminyl-seryl-methionyl-seryl-glycyl-isoleucine-amide]"
6,1130,"Ac-TDLRTEDTGVYYCSRNYYGSTY-NH2 [SEQ ID NO:5, Acetyl-threonyl-aspartyl-leucyl-arginyl-threonyl-glutamyl-aspartyl-threonyl-glycyl-valyl-tyrosyltyrosyl-cysteinyl-seryl-arginyl-asparaginyl-tyrosyl-tyrosyl-glycyl-seryl-threonyl-tyrosine-amide]"
7,290,"Ac-YAESVKGRFTISRDDSKSAVYL-NH2 [SEQ ID NO:3, Acetyl-tyrosyl-alanyl-glutamyl-seryl-valyl-lysyl-glycyl-arginyl-phenylalanyl-threonyl-isoleucyl-seryl-arginyl-aspartyl-aspartyl-seryl-lysyl-seryl-alanyl-valyl-tyrosyl-leucine-amide]"
8,1080,"Ac-YYSQQSHSWPFTF-NH2 [SEQ ID NO:7, Acetyl-tyrosyl-tyrosyl-seryl-glutaminyl-glutaminyl-seryl-histidyl-seryl-tryptophyl-prolyl-phenylalanyl-threonyl-phenylalanine-amide]"
9,1020,"RQSPEKGLEWVAEIRSKSI-NH2 [SEQ ID NO:4, Arginyl-glutaminyl-seryl-prolyl-glutamyl-lysyl-glycyl-leucyl-glutamyl-tryptophyl-valyl-alanyl-glutamyl-isoleucyl-arginyl-seryl-lysyl-seryl-isoleucine- amide]"
